# Several values for one entry are separate records, joined by “and”; a condition that tells them apart may be missing. Equal entries are not always repeated.
# What was measured:
# Zucker fatty rats [1] = experiment: Oral glucose challenge in Zucker fatty rats (Example 10); assay type: in vivo; details: racemate 100 mg/kg, enantiomers 50 and 100 mg/kg; for incremental glucose area under the curve (AUC) vs control, in words: single oral dose
# Protocol: (§1) Prior to treatment, rats were assigned to 6 groups based on body weight. Each treatment group consisted of 8 rats. […] The gavage volume was 10 ml/kg. All rats received an oral glucose challenge (1.9 g/kg) 5.5 hours after the treatment and 4 hours after withdrawal of the food. Blood samples were taken at 0, 15, 30, 60, 90, 120, and 180 minutes following the glucose challenge for plasma glucose measurement. […] On day 5, rats received the intravenous insulin (0.75 U/kg) 5.5 hours after the last dose and 4 hours after withdrawal of the food. Blood samples were taken at 3, 6, 9, 12, 15 and 18 minutes following the insulin injection for plasma glucose measurement.
# Zucker fatty rats [2] = experiment: Short insulin tolerance test in Zucker fatty rats (Example 10); assay type: in vivo; details: 50 mg/kg/day for 5 days
# Protocol: as §1
# [3] = tested on: Zucker Diabetic Fatty rats; experiment: Lipid lowering activity in Zucker Diabetic Fatty rats (Example 11); assay type: in vivo; details: ZDF rats; for plasma cholesterol course during treatment, in words: 13 days, racemate 50 mg/kg/day, enantiomers 25 mg/kg/day
# Protocol: Male Zucker diabetic fatty (ZDF) rats were obtained from GMI Laboratories (Indianapolis, Ind.) at 9 weeks of age. Vehicle or enantiomers of halofenate administered by oral gavage on a daily basis starting at 74 days of age. Initial blood samples were obtained for analysis one day before treatment and at the indicated times in the treatment protocol. Blood was analyzed for plasma triglyceride and cholesterol by standard techniques.
# ZDF rats = experiment: Plasma glucose in ZDF rats, (−) versus (+) halofenate (Example 13); assay type: in vivo; details: 50 mg/kg oral once a day for 3 days
# Protocol: Male 8-9 week old ZDF rats were purchased from Genetic Models, Inc. (Indianapolis, Ind.). […] Rats that had 4-hour fasting plasma glucose levels between 200 and 500 mg/dL were used. […] The gavage volume was 5 ml/kg. Blood samples were taken at 5 hours post dose on day 2 and 3.
# [4] = tested on: oxonic acid induced hyperuricemic rats; experiment: Plasma uric acid in oxonic acid induced hyperuricemic rats (Example 17); assay type: in vivo; details: oxonic acid hyperuricemic SD rats, oral 50 mg/kg for 3 days, 100 mg/kg on day 4, 6 hours post gavage
# Excerpt: Male SD rats, weight 275-300 g were purchased from Charles River. […] To establish a hyperuricemic state, animals were put on a diet containing 2.5% (w/w) of oxonic acid (Sigma Chemical Co, St. Louis, Mo., USA) throughout the experiment. Oxonic acid elevates plasma uric acid by inhibiting uricase. Rats were screened for plasma uric acid levels 3 days after they were placed on the diet, and those that had extreme plasma uric acid levels were excluded. Rats were assigned to one of three groups and the mean uric acid levels were equivalent in each group. […] Oxonic acid was delivered in a liquid formulation containing 0.9% (w/v) methylcellulose. The gavage and injection volumes were 5 ml/kg. Blood samples were taken at 6 hours post oral gavage on day 4. Plasma uric acid levels were determined colorimetrically using the Infinity Uric Acid Reagent (Sigma Chemical Co, St. Louis, Mo., USA).
# diabetic ob/ob mice [5] = experiment: Glucose and insulin lowering on daily oral administration for 5 days in ob/ob mice (Example 9)
# Protocol: Animals were housed (4-5 mice/cage) under standard laboratory conditions at 22° C. and 50% relative humidity, and were maintained on a diet of Purina rodent chow and water ad libitum. Prior to treatment, blood was collected from the tail vein of each animal. Mice that had non-fasting plasma glucose levels between 300 and 520 mg/dL were used. Each treatment group consisted of 10 mice that were distributed so that the mean glucose levels were equivalent in each group as the start of the study. […] The gavage volume was 10 ml/kg. Blood samples were taken at 3, 6, 27, 30 and 120 hour after the first dose and analyzed for plasma glucose and insulin. The animals were fasted overnight (14 hours) before the 120 hours sampling. Plasma glucose concentrations were determined calorimetrically using glucose oxidase method (Sigma Chemical Co, St. Louis, Mo., USA). Plasma insulin concentrations were determined by using the Rat Insulin RIA Kit from Linco Research Inc. (St. Charles, Mo., USA). Significance difference between groups (comparing drug-treated to vehicle-treated) was evaluated using Student unpaired t-test.
# [6] = Pharmacokinetic study in SD rats, chiral HPLC of plasma halofenic acids (Example 14); assay type: in vivo; details: single oral dose of (−) halofenate 50 mg/kg
# Protocol: Male 225-250 g SD rats were purchased from Charles River. […] A catheter was placed in the left carotid artery under sodium pentobarbital (50 mg/kg i.p.) and animals were allowed to recover for 2 days before treatment. […] The gavage volume was 5 ml/kg. Blood samples were collected at 1, 2, 4, 6, 8, 12, 24, 48, 72, 96 and 120 hours post dose. The plasma samples were analyzed for each enantiomeric acid ((−) halofenic acid and (+) halofenic acid) by a chiral specific HPLC assay, since the esters are prodrugs, which are designed to convert to their respective enantiomeric acids in vivo.
# [7] = target: T1, cytochrome P450 2C9 (CYP2C9) (Homo sapiens, UniProt P11712); experiment: biochemical
# T1 sequence (P11712 whole entry): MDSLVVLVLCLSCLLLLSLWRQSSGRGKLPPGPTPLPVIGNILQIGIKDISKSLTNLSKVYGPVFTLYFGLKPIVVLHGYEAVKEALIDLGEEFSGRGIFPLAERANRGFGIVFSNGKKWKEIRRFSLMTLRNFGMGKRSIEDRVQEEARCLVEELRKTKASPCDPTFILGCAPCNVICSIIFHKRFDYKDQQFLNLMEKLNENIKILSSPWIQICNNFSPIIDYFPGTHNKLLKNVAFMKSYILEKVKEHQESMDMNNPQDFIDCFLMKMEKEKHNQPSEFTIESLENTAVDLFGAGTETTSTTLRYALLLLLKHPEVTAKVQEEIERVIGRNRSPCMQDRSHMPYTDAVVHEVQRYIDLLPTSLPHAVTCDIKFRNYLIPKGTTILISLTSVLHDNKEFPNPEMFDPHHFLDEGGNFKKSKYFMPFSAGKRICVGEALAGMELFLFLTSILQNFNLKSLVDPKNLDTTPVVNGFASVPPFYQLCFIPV
# Protocol: (§2) Tolbutamide hydroxylation activity (100 μM C-tolbutamide; 1 mM NADPH) was assayed in pooled human liver microsomes (0.6 mg protein/ml)) for 60 minutes at 37° C. both with and without test compounds.
# [8] = target: T1, cytochrome P450 2C9 (CYP2C9); experiment: Inhibition of CYP2C9 tolbutamide hydroxylation activity in pooled human liver microsomes (Example 7)
# Protocol: as §2
# diabetic ob/ob mice [9] = experiment: Time course of glucose-lowering after a single oral dose in ob/ob mice (Example 8); assay type: in vivo; details: single oral dose 250 mg/kg
# patients with diabetes = details: cited from earlier work
# [10] = 250 mg/kg/day oral, listed as (+) enantiomer, 250 mg/kg/day
smiles,measurement,setting,value
"CC(=O)NCCOC(=O)C(Oc1cccc(C(F)(F)F)c1)c1ccc(Cl)cc1 (single isomer, unassigned; (+)) [(+) halofenate, (+) 2-Acetamidoethyl 4-Chlorophenyl-(3-trifluoromethylphenoxy)-acetate, reference compound]","incremental glucose area under the curve (AUC) vs control, in words",Zucker fatty rats [1],not statistically significant
same,"insulin sensitivity (slope of decline in glucose after i.v. insulin), in words",Zucker fatty rats [2],small effect on insulin sensitivity that was not significantly different from the vehicle-treated control
same,"lowering of plasma triglyceride vs control at 7 days, in words",[3]; 37.5 mg/kg/day (High dose),significant lowering of plasma triglyceride
same,days of treatment with significant plasma cholesterol decrease vs control,"[3]; 37.5 mg/kg/day (High dose), 37.5 mg/kg/day",after 7 days but not after 14 days
same,"plasma cholesterol course during treatment, in words",[3],remained relatively constant
same,"plasma glucose compared to vehicle-treated animals, in words",ZDF rats,failed to reduce plasma glucose concentrations
same,"plasma uric acid levels vs vehicle, in words",[4],"lowered plasma uric acid levels, but it was not statistically significant"
same,"overnight fasting plasma insulin after 5 days, in words","diabetic ob/ob mice [5]; 125 mg/kg/day oral, listed as (+) enantiomer, 125 mg/kg/day",did not lower plasma insulin
same,"overnight fasting plasma insulin after 5 days, in words",diabetic ob/ob mice [5]; [10],decrease in plasma insulin
same,time points with reduced plasma insulin vs control,diabetic ob/ob mice [5]; [10],greatest extent of reduced plasma insulin was noted at 27 and 30 hours
"O=C(O)C(Oc1cccc(C(F)(F)F)c1)c1ccc(Cl)cc1 (single isomer, unassigned; (+)) [(+) halofenic acid, (+) 4-chlorophenyl-(3-trifluoromethylphenoxy)-acetic acid, reference compound]",plasma concentration at 0 hour,"[6]; individual rats 8, 9, 11",BQL (BQL = Below Quantifiable Limit < 1.00 μg/mL)
same,plasma concentration at 1 hour,"[6]; individual rats 8, 9, 11",1.12 μg/mL and BQL (BQL = Below Quantifiable Limit < 1.00 μg/mL) (2×)
same,plasma concentration at 2 hours,"[6]; individual rats 8, 9, 11",1.27 μg/mL and BQL (BQL = Below Quantifiable Limit < 1.00 μg/mL) and 1.09 μg/mL
same,plasma concentration at 4 hours,"[6]; individual rats 8, 9, 11",1.67 μg/mL and BQL (BQL = Below Quantifiable Limit < 1.00 μg/mL) and 1.95 μg/mL
same,plasma concentration at 6 hours,"[6]; individual rats 8, 9, 11",2.96 μg/mL and BQL (BQL = Below Quantifiable Limit < 1.00 μg/mL) and 1.73 μg/mL
same,plasma concentration at 8 hours,"[6]; individual rats 8, 9, 11",2.58 μg/mL and BQL (BQL = Below Quantifiable Limit < 1.00 μg/mL) and 2.06 μg/mL
same,plasma concentration at 12 hours,"[6]; individual rats 8, 9, 11",2850 ng/mL and 2230 ng/mL and 2080 ng/mL
same,plasma concentration at 24 hours,"[6]; individual rats 8, 9, 11",2220 ng/mL and 1290 ng/mL and 1860 ng/mL
same,plasma concentration at 48 hours,"[6]; individual rats 8, 9, 11",1640 ng/mL and 1030 ng/mL and 1140 ng/mL
same,plasma concentration at 72 hours,"[6]; individual rats 8, 9, 11",1.25 μg/mL and BQL (BQL = Below Quantifiable Limit < 1.00 μg/mL) (2×)
same,plasma concentration at 96 hours,"[6]; individual rats 8, 11",BQL (BQL = Below Quantifiable Limit < 1.00 μg/mL)
same,plasma concentration at 120 hours,[6]; rat 8,BQL (BQL = Below Quantifiable Limit < 1.00 μg/mL)
same,IC50,[7],220 nM
same,"inhibition of cytochrome P450 2C9, in words",[8],quite potent
"CC(=O)NCCOC(=O)C(Oc1cccc(C(F)(F)F)c1)c1ccc(Cl)cc1 (racemic) [racemic halofenate, 2-acetamidoethyl (4-chlorophenyl) (3-trifluoromethylphenoxy) acetate, reference compound]",time of peak glucose-lowering activity,diabetic ob/ob mice [9],9 h
same,time points with significant (p<0.05) decrease in glucose compared to control,diabetic ob/ob mice [9],most of the timepoints
same,"plasma glucose after oral glucose challenge, in words",Zucker fatty rats [1]; single oral dose 5.5 hours before challenge,plasma glucose was reduced
same,"incremental glucose area under the curve (AUC) vs control, in words",Zucker fatty rats [1],not statistically significant
same,"plasma cholesterol course during treatment, in words",[3],plasma cholesterol declined with treatment
same,side effects noted,patients with diabetes; previous studies,gastrointestinal bleeding from stomach and peptic ulcers
same,effect on glucose in patients with diabetes,patients with diabetes; treated with racemic halofenate alone,minimal effect on glucose
same,time points with significant plasma glucose reduction vs control,diabetic ob/ob mice [5]; 250 mg/kg/day oral,Significant decreases in glucose levels
same,time points with reduced plasma insulin vs control,"diabetic ob/ob mice [5]; 250 mg/kg/day oral, listed as racemate, 250 mg/kg/day",insulins were lower
"O=C(O)C(Oc1cccc(C(F)(F)F)c1)c1ccc(Cl)cc1 (racemic) [racemic halofenic acid, 4-Chlorophenyl-(3-trifluoromethylphenoxy)-acetic Acid]",IC50,[7],450 nM
same,"inhibition of cytochrome P450 2C9, in words",[8],found to inhibit cytochrome P450 2C9

# Source: US20040039053A1, “Use of(-) (3-halomethylphenoxy) (4-halophenyl) acetic acid derivatives for treatment of insulin resistance, type 2 diabetes, hyperlipidemia and hyperuricemia” (priority 2000, published 2004)
